{"source": "patent US20090117154A1", "about": "“SYNTHETIC POLYVALENT CARBOHYDRATES AS COMPONENTS OF MICROBICIDES” (priority 2005, published 2009)", "target": "T1, DC-SIGN (Homo sapiens, UniProt Q9NNX6)", "T1 construct": "made in house", "T1 sequence (Q9NNX6 59-404)": "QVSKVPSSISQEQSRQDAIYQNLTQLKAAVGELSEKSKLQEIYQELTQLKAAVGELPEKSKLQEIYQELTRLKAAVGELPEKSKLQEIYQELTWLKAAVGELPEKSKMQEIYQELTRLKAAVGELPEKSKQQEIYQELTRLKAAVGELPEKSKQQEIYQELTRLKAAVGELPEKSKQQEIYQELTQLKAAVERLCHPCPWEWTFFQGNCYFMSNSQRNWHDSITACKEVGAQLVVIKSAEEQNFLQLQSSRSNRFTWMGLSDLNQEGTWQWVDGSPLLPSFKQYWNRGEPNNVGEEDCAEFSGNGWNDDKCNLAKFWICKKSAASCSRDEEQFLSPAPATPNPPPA", "test": "Inhibition of the binding of soluble DC-SIGN to immobilized HIV-1 Bal gp120 (plate ELISA)", "conditions": "soluble DC-SIGN/mAb complex, gp120 captured on D7324 plate; preliminary assay; FIG. 3", "protocol": "Preliminary assays were conducted on the inhibition of the synthetic polyvalent compounds against the binding between HIV-1 gp120 and DC-SIGN. Specifically, plates were coated with 5 ug/mL D7324 anti-gp120 capture antibody, in 1×PBS O/N at RT. Blocking buffer was 5% BSA in 1×TBST+1 mM CaCL2, assay/dilution buffer was 2% BSA in 1×TBST+1 mM CaCL2 and wash buffer was 1×TBST+1 mM CaCL2 (4 washes, 200 uL per well). Gp120 (CHOK1, uQuant) was captured on the D7324 plate at saturation, 500 ng/mL in assay buffer for 2 hour at RT. sDC-SIGN supernatant (Nov. 6, 2004) was supplemented with 1 mM CaCL2 and pre-complexed with 3 ug/mL anti-DC-SIGN mAb (120507, Sigma) for 1 hour at RT. Mannose products were titered 1:2 in assay buffer (Starts 1:4 in column 2), sDC-SIGN/mAb complexes were added to the titered mannose at about 1:5 (155 uL mannose+45 uL sDC-SIGN/mAb) (no sDC-SIGN in column 12), sDC-SIGN/mAb complexes mixed with mannose compounds were allowed to bind to the Gp120 plate for 1 hour at RT. Any bound sDC-SIGN/mAb complexes were detected with goat anti-mouse-IgG-HRP (Axcell) 1:2000 in assay buffer, absorbed with 2% sheep serum.", "data": [{"smiles": "CC(=O)N[C@@H]1[C@@H](O)[C@H](O[C@@H]2O[C@H](CO)[C@@H](O[C@@H]3O[C@H](CO[C@H]4O[C@H](CO[C@H]5O[C@H](CO)[C@@H](O)[C@H](O)[C@@H]5O[C@H]5O[C@H](CO)[C@@H](O)[C@H](O)[C@@H]5O)[C@@H](O)[C@H](O[C@H]5O[C@H](CO)[C@@H](O)[C@H](O)[C@@H]5O[C@H]5O[C@H](CO)[C@@H](O)[C@H](O)[C@@H]5O)[C@@H]4O)[C@@H](O)[C@H](O[C@H]4O[C@H](CO)[C@@H](O)[C@H](O)[C@@H]4O[C@H]4O[C@H](CO)[C@@H](O)[C@H](O)[C@@H]4O[C@H]4O[C@H](CO)[C@@H](O)[C@H](O)[C@@H]4O)[C@@H]3O)[C@H](O)[C@H]2NC(C)=O)[C@@H](CO)O[C@H]1NC(=O)C[C@H](N)C(=O)O", "note": "[Man9, Man9GlcNAc2Asn]", "values": [{"measurement": "inhibition of the binding of soluble DC-SIGN to immobilized gp120 (in words)", "result": "much better than the disaccharide and monosaccharide in inhibition"}]}]}
